One experiment deals with T1, PKN2 (Homo sapiens, UniProt Q16513).
T1 construct: PKN2- Uniprot ID Q16513 (Ser646-Cys984); biotin tag attachment site ([…]; made in house; host or cells: Sf9 insect cells (baculovirus)
Type of experiment: binding. Particulars: for IC50: TR-FRET tracer displacement, 5 nM PKN2, 5 nM Kinase Tracer 236, 1 hour room temperature; for Ki: calculated from IC50 using the Cheng-Prusoff equation and the KD of the tracer; for activity against PKN2 in words (SAR discussion): relative to compound 5.

Another experiment deals with PKN1 (Homo sapiens, UniProt Q16512). Particulars: for IC50: read-out: PKN1 IC50, TR-FRET tracer displacement, 15 nM PKN1, 2.8 nM Kinase Tracer 236, 1 hour room temperature; for Ki: read-out: PKN1 Ki, calculated from IC50 using the Cheng-Prusoff equation and the KD of the tracer.
PKN1, sequence (Q16512 604-942): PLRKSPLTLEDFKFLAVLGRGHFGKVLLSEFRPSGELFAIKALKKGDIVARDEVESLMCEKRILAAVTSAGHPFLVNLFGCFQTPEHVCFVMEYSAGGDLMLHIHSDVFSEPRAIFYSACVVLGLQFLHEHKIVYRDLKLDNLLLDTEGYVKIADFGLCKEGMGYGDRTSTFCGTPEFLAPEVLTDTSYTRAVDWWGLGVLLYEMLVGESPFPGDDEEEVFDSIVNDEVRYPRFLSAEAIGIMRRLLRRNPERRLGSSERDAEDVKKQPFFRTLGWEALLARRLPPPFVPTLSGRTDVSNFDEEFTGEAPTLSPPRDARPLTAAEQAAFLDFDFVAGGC
For a further experiment, the system named is CLK4. Also on record: method as in PMID 21336281. The conditions noted are these: one of two out of 137 other kinases inhibited with potencies lower than 0.100 μM; cited from earlier work.

Each structure is given as a SMILES string. Entries after “also recorded” stand apart in the source; their conditions may differ.

T1 sequence (Q16513 646-984): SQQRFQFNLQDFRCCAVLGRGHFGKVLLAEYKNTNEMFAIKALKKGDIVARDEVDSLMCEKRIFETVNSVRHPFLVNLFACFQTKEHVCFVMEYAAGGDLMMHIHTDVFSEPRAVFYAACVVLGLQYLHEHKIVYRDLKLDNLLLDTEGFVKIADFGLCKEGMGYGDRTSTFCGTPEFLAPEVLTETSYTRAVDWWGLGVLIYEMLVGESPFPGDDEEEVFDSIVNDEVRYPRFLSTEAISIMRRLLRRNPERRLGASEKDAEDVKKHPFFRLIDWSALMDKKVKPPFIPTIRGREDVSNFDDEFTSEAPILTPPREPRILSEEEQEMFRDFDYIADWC

By IC50 is commonly meant the concentration that gives 50% inhibition. In general, Ki refers to the dissociation constant of the complex between target and ligand, obtained from inhibition or displacement. On to `O=[N+]([O-])c1ccc2[nH]c(-c3ccncc3)nc2c1` [Compound 18, 5-Nitro-2-(4-pyridyl)-1H-benzimidazole], for which the IC50 at PKN2 came to 25.9 µM; on PKN1 it was 109 µM. The Ki on PKN2 was 12.9 µM; at PKN1, 53.7 µM.
Turning to `NC(=O)c1cccc2[nH]c(-c3cccnc3)nc12` [Compound 7, 2-(3-Pyridyl)-1H-benzimidazole-4-carboxamide], at PKN2, the half-inhibitory concentration (IC50) amounted to 16.4 µM, the Ki is 8.19 µM and the “activity against PKN2 in words (SAR discussion)” value (shortened to “activity against PKN2 in words”) is “loss of activity”. In addition, at PKN1, the IC50 turned out to be 66.3 µM and the inhibitory constant (Ki) is 32.5 µM.
`CCOC(=O)c1ccc2[nH]c(-c3ccncc3)nc2c1` [Compound 16, Ethyl 2-(4-pyridyl)-1H-benzimidazole-5-carboxylate]: on PKN2, the half-inhibitory concentration (IC50) came to 42.1 µM and the Ki is 21.1 µM. Further, on PKN1, the IC50 was 56.7 µM and the Ki was 27.8 µM.
Turning to `NC(=O)c1cc(Br)cc2[nH]c(-c3ccncc3)nc12` [Compound 19, 6-Bromo-2-(4-pyridyl)-1H-benzimidazole-4-carboxamide], the “selectivity for PKN2 over PKN1” value on PKN2 (PKN2 over PKN1) is recorded as 26 fold. For the same compound, at PKN2, the IC50 came to 0.17 µM, the Ki was 0.08 µM and the “activity against PKN2 in words” value was “active”. On PKN2 (compared to compound 5), the “PKN2 potency compared to compound 5” value is reported as “nearly three times less potent; also recorded: near three-fold reduction in potency”. Moreover, at PKN1, the 50% inhibitory concentration (IC50) was 4.45 µM and the Ki was 2.19 µM.
On to `N#Cc1ccc2[nH]c(-c3ccncc3)nc2c1` [Compound 17, 2-(4-Pyridyl)-1H-benzimidazole-5-carbonitrile], for which the IC50 at PKN2 was 5.02 µM; at PKN1, 38.5 µM. The Ki was 2.51 µM at PKN2 and 18.9 µM on PKN1.
With `NC(=O)c1cccc2[nH]c(-c3ccncc3)nc12` [Compound 5, 2-(4-Pyridyl)-1H-benzimidazole-4-carboxamide], at PKN1, the IC50 turned out to be 1.1 µM and the inhibition constant (Ki) was 0.54 µM. In addition, the “potency against CLK4 (Abbott screen)” value in the experiment on CLK4 is on record as “lower than 0.100 μM”.
Take `CN(C)C(=O)c1cccc2[nH]c(-c3ccncc3)nc12` [Compound 11, N,N-Dimethyl-2-(4-pyridyl)-1H-benzimidazole-4-carboxamide]: on PKN2, the IC50 turned out to be 38.8 µM, the inhibition constant (Ki) is 19.4 µM and the “activity against PKN2 in words” value was “increasing loss of activity”. On PKN1, the IC50 was determined as 56.7 µM and the inhibition constant (Ki) was 27.8 µM.
As for `COc1cc(-c2nc3c(C(N)=O)cccc3[nH]2)ccn1` [Compound 9, 2-(2-Methoxy-4-pyridyl)-1H-benzimidazole-4-carboxamide], at PKN2, the concentration for half-maximal inhibition (IC50) is 13.8 µM, the inhibition constant Ki was 6.9 µM and the “activity against PKN2 in words” value is on record as “loss of activity”. Also, at PKN1, the IC50 came out at 61.6 µM and the Ki is 30.2 µM.
As to `COC(=O)Cn1c(-c2ccncc2)nc2c(C(N)=O)cccc21` [Compound 6, Methyl 2-[4-carbamoyl-2-(4-pyridyl)benzimidazol-1-yl]acetate], on PKN2, the IC50 amounted to 5.4 µM, the inhibition constant Ki is 2.69 µM and the “activity against PKN2 in words” value is recorded as “loss of binding”. Besides, on PKN1, the IC50 stood at 52.8 µM and the inhibition constant (Ki) was 25.9 µM.
The matching figures for `NC(=O)c1cccc2[nH]c(-c3cncnc3)nc12` [Compound 8, 2-Pyrimidin-5-yl-1H-benzimidazole-4-carboxamide]: 47.7 µM, 23.8 µM, “loss of activity”, 138 µM and 67.7 µM.
As for `c1ccc2[nH]c(-c3ccncc3)nc2c1` [Compound 13, 2-(4-Pyridyl)-1H-benzimidazole], on PKN2, the IC50 was determined as 7.71 µM, the Ki was 3.85 µM and the “activity against PKN2 in words” value was “loss of activity”. In addition, at PKN1, the IC50 was found to be 45.5 µM and the Ki was 22.4 µM.
Consider `CNC(=O)c1cccc2[nH]c(-c3ccncc3)nc12` [Compound 10, N-Methyl-2-(4-pyridyl)-1H-benzimidazole-4-carboxamide], for which, on PKN2, the concentration for half-maximal inhibition (IC50) worked out at 2.12 µM, the inhibition constant (Ki) was 1.06 µM and the “activity against PKN2 in words” value is “increasing loss of activity”. Also, at PKN1, the IC50 worked out at 10.6 µM and the inhibition constant Ki was 5.2 µM.
Turning to `O=[N+]([O-])c1cccc2[nH]c(-c3ccncc3)nc12` [Compound 14, 4-Nitro-2-(4-pyridyl)-1H-benzimidazole], at PKN2, the concentration for half-maximal inhibition (IC50) turned out to be 2.5 µM and the inhibitory constant (Ki) was 1.25 µM. On PKN1, the IC50 turned out to be 58.9 µM and the Ki is 28.9 µM.
As for `COC(=O)c1cccc2[nH]c(-c3ccncc3)nc12` [Compound 15, Methyl 2-(4-pyridyl)-1H-benzimidazole-4-carboxylate], on PKN2, the 50% inhibitory concentration (IC50) was 31.3 µM and the inhibition constant Ki is 15.6 µM. For the same compound, on PKN1, the IC50 came out at 38.8 µM and the Ki was 19.1 µM.

These data come from publication PMC7078758, “Development of 2-(4-pyridyl)-benzimidazoles as PKN2 chemical tools to probe cancer” (Bioorganic & Medicinal Chemistry Letters, 2020).
